Measurements taken from PMC3115942 (PLoS ONE, 2011).

Columns and labels:
[1] = system: Hh pathway in Shh-L2 cells; test: Hh reporter assay in Shh-L2 cells; format: cell-based, mouse; conditions: Mus musculus; pathway inhibition in Shh induced Shh-L2 cells, 48 hours treatment
Method: Shh-L2 cells were used as a Hh reporter cell line as described previously. Hh signaling was induced by Shh conditioned medium, 200 nM SAG (AH-Diagnostics) and ActOXS (a combination of 5 µM Hydroxycholesterol 20-alfa and 5 µM Hydroxycholesterol 22S (Sigma-Aldrich)). For Shh conditioned medium, Shh-PANC-1 cells were grown to confluence and switched to fresh medium. Shh conditioned medium was harvested after 48 hours, and was diluted to 50% in fresh DMEM before use. The clonal Shh-PANC-1 cell line was generated by stably transducing PANC-1 cells with virus containing medium from HEK293T cells that were transfected using a Virapower Lentiviral expression kit (Invitrogen). The vector was produced by removing GFP from a pLenti 6.2-vector, and inserting the mouse Shh cDNA sequence.
The calculations were performed with an online calculator using the formula: a exp (−bx) + c at the website; http://www.changbioscience.com/stat/ec50.html

[2] = system: Gli1 mRNA expression in Sufu−/− MEF; test: Real time PCR of Gli1 mRNA in Sufu−/− MEF; format: cell-based, mouse; conditions: 72 hours
Method: (§1) Cells were lysed for RNA extraction after 48 or 72 hours of treatment. Total RNA from cultured cells or tumor tissue was isolated using the GeneElute miniprep kit (Sigma-Aldritch) following the manufacturer^'s instructions. cDNA was synthesized from the isolated mRNA using the Retroscript kit (Ambion), and real-time PCR was carried out using the SYBR Green PCR master mix (Stratagene) according to the manufacturer^'s instructions with an Mx3000P cycler (Stratagene). The relative concentrations of cDNA present in each sample were calculated by the MxPro software (Stratagene), normalized for GAPDH (mRNA from cells) or GUS (mRNA from tumors). For real time PCR primer sequences see Table 6. For the tumor tissue real time PCR, previously described human and mouse specific primers against GUSB, PTCH1 and GLI1were used.

[3] = system: Gli1 protein in Sufu−/− MEF; test: Gli1 immunostaining of Sufu−/− MEF; format: cell-based, mouse; conditions: 20 µM, 48 hours
[4] = system: GLI1 mRNA in PANC-1 cells; test: Real time PCR of GLI1 mRNA in PANC-1; format: cell-based, human; conditions: 5 µM, 48 hrs
Method: as §1

[5] = system: GLI1 mRNA in SUIT-2 cells; test: Real time PCR of GLI1 mRNA in SUIT-2; format: cell-based, human; conditions: 48 hrs
Method: as §1

[6] = system: GLI1 mRNA in PC-3 cells; test: Real time PCR of GLI1 mRNA in PC-3; format: cell-based, human; conditions: 48 hrs
Method: as §1

[7] = system: PANC-1, SUIT-2, PC-3 and FEMX cells; test: In vitro antiproliferative assay (MTS), tumor cell lines; format: cell-based, human; conditions: 10 µM, 4 day exposure; across PANC-1, SUIT-2, PC-3 and FEMX
Method: (§2) Cells were plated at a density of 3000 (THLE-2 and PC-3) and 1000 (PANC-1, SUIT-2 and FEMX) cells per well (on the basis of their growth rate) in 200 µl of medium in a 96-well plate. Medium was changed daily, and after four days, the assay was read using a MTS kit (Promega) according to the instructions of the manufacturer. Graphs display average of percent growth with standard deviation (n = 8).

[8] = system: PANC-1 cells; test: In vitro antiproliferative assay (MTS), PANC-1; format: cell-based, human; conditions: 5 µM, 4 day
Method: as §2

| Structure (SMILES) | IC50 [1] [nM] | inhibitory effect on Hh signaling downstream of Smo in Sufu−/− MEFs [2] | total level of Gli1 in the cells [3] | GLI1 mRNA levels, PANC-1 [4] | GLI1 mRNA levels, SUIT-2 [5] | GLI1 mRNA levels, PC-3 [6] | growth reduction (MTS) [7] [%] | growth (MTS), PANC-1 [8] |
| --- | --- | --- | --- | --- | --- | --- | --- | --- |
| CS(=O)(=O)c1ccc(C(=O)Nc2ccc(Cl)c(-c3ccccn3)c2)c(Cl)c1 [GDC-0449, reference compound] | 30 | little inhibitory effect | reduced Gli1 levels in the cells, but to a lesser extent than MS-0022 | without reducing GLI1 mRNA levels | reduced GLI1 mRNA levels | reduced GLI1 mRNA levels | ≤ 30 | reduced growth |
| CC1=C2C[C@H]3[C@@H](CC=C4C[C@@H](O)CC[C@@]43C)[C@@H]2CC[C@]12O[C@@H]1C[C@H](C)CN[C@H]1[C@H]2C [cyclopamine, reference compound] | 210 | little inhibitory effect | no significant effect |  | reduced GLI1 mRNA levels |  |  |  |
